Molecules are shown by their SMILES.

One test relates to E. coli K12 PBP1a/b. The test is described as follows: Bocillin FL competition binding assay, PBP1a/1b combined. Also on record: species or system Escherichia coli K12. As to conditions: 15 min pre-incubation, PBP 1a/1b combined. Here is the method: (§1) To determine the ability of test compounds to bind Penicillin Binding Proteins (PBPs), a competition binding assay using Bocillin FL (fluorescent derivative of penicillin V) was adapted from the classical method used to assess PBP potency of beta-lactams.
(§2) Penicillin binding proteins were isolated from Escherichia coli K12 by growth of Escherichia coli K12 from a single colony in 4 L of Luria-Bertani (LB) broth at 35° C. and 250 rpm to an OD600 nm of 0.5. The cells were harvested by centrifugation at 7,000×g for 10 min. at 4° C. Cells were resuspended and washed in 50 mM potassium phosphate pH 7.5. The cells were re-suspended in sonication buffer [50 mM Tris-HCl pH 7.5, 1 mM MgCl2, 1 mM beta-mercaptoethanol, and 5 μg/mL DNAse I] and sonicated by 4 passes of 30 seconds at 45 W on ice. The sample was clarified by centrifugation at 3,000×g to remove cell debris and unbroken cells and supernatant containing the membrane proteins was retained. The membrane proteins including the PBPs were further purified from soluble constituents by an ultracentrifugation step at 100,000×g for 30 min. at 4° C. The membrane proteins are washed twice with 10 mM sodium phosphate pH 7, resuspended in a volume of 5 mL, quantitated by BCA assay, adjusted to […] and frozen at −80° C. until use.
(§3) The adapted Bocillin FL competition binding method described herein incorporates a 15 min. pre-incubation of test compound with isolated PBPs to attempt to balance the difference in mechanism of inhibition between beta-lactams (largely irreversible covalent bond to active site Serine) and the boron-containing PBP inhibitor test compounds (reversible covalent bond to active site Serine). Briefly, 50 μL reactions consisted of 100 μg's of total membrane protein extracts containing PBPs incubated with a dilution series of test compound ranging from 0.005 μg/mL to 2,480 μg/mL in 10 mM sodium phosphate pH7 containing 350 mM NaCl. Thirty minute reactions at 35° C. were initiated by addition of […] Bocillin FL, quenched by addition of SDS-PAGE loading buffer containing sodium dodecyl sulfate (SDS) and heated for 15 minutes at 95° C. to denature proteins in preparation for SDS-polyacrylamide gel electrophoresis. The Bocillin FL labeled PBPs are then separated by SDS-PAGE in Novex NuPage 10% Bis-Tris pre-cast gels (Invitrogen). The SDS-PAGE gel, post-electrophoresis, is then washed in water to remove excess SDS for 10 minutes at room temperature and placed on the scanning bed of a GE Healthcare/Amersham Biosciences Storm 860 fluorescence scanner. The excitation wavelength is in the blue spectrum at 450 nm and the emission at 520 nm is captured by the instrument. Effective PBP inhibitors are detected by a reduction in Bocillin FL labeling of the particular PBP over the dose range of test compound in a dose-responsive manner. High molecular weight PBP 1a/1b are not resolved by these gels, thus we report HMW PBP binding results in μg/mL for PBPs 1a/1b combined as well as for PBP2 and PBP3.
(§4) Representative results are shown in Table 2, where A represents a potency of >1000 μg/mL, B represents a potency between 64 and 1000 μg/mL inclusive, and C represents a potency of <64 μg/mL. NT=Not Tested.

Test [1] deals with hyper-permeable E. coli 901C. Kind of test: Broth microdilution MIC assay, hyper-permeable E. coli. In kind it is cell-based. As to conditions: Escherichia coli, read-out: E. coli 901C MIC. In short, it runs like this:
(§5)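 Following CLSI procedures, compounds were serially diluted 2-fold and challenged with bacteria at 5×10^5 CFU/mL in Mueller-Hinton broth supplemented with divalent cations. After 16-20 hours at 37° C, the lowest concentration without visible growth was recorded as the MIC.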
A general note: Dilution methods test growth across graded concentrations, often in twofold steps.

The test system of a further test is S. aureus ATCC 29213. Kind of test: Broth microdilution MIC assay, S. aureus. It is filed as cell-based. Particulars: Staphylococcus aureus, ATCC29213; broth microdilution, 16-20 hours at 37° C.; read-out: S. aureus 29213 MIC. In short, it runs like this: as §5
In the next test the target is T1, E. coli PBP2 (Escherichia coli, UniProt P0AD65).
T1 construct: 100 μg's of total membrane protein extracts containing PBPs; endogenous in cells; host or cells: Escherichia coli K12, membrane protein fraction
T1 sequence (P0AD65 whole entry): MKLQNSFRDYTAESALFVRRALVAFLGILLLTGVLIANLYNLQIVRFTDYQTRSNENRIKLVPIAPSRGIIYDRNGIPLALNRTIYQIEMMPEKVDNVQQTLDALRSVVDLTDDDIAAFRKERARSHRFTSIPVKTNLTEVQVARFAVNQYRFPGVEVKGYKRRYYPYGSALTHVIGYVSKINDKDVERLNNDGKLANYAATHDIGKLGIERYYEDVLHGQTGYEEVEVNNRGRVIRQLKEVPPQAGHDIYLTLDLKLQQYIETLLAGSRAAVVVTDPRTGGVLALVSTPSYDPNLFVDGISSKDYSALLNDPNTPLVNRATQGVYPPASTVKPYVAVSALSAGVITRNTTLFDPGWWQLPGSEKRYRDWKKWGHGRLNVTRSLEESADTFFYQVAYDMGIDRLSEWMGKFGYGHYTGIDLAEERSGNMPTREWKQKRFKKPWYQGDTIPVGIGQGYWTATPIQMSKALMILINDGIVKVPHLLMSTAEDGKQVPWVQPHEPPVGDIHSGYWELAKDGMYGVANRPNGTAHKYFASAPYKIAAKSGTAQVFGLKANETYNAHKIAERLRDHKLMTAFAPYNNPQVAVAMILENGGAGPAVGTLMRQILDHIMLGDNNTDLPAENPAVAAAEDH
Kind of test: Bocillin FL competition binding assay, PBP2. Also on record: species or system Escherichia coli K12. As to conditions: 15 min pre-incubation. The protocol:
as §1, §2, §3, §4

A further test has as its target T2, E. coli PBP3 (Escherichia coli, UniProt P0AD68).
T2 construct: 100 μg's of total membrane protein extracts containing PBPs; endogenous in cells; host or cells: Escherichia coli K12, membrane protein fraction
Kind of test: Bocillin FL competition binding assay, PBP3. Also on record: species or system Escherichia coli K12. As to conditions: 15 min pre-incubation. Here is the method: as §1, §2, §3, §4

T2 sequence (P0AD68 1-577): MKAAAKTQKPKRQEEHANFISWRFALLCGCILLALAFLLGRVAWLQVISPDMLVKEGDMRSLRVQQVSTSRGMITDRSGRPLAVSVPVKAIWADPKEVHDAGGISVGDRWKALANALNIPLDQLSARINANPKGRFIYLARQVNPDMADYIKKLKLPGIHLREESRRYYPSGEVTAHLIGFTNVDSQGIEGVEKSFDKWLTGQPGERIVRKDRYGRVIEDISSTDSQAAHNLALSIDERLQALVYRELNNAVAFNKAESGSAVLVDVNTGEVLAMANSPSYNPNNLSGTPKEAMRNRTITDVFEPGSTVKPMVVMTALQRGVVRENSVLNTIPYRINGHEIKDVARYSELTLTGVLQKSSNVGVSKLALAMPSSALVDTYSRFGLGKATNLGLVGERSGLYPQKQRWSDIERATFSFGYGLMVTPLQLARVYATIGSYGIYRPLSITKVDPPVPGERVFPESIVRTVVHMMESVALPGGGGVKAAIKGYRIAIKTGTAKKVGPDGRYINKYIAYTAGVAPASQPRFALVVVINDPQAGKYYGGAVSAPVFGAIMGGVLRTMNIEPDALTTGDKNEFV

For `Nc1nc(/C(=N\O)C(=O)N[C@H]2Cc3cccc(C(=O)O)c3OB2O)cs1` [Example 7, (R,E)-3-(2-(2-aminothiazol-4-yl)-2-(hydroxyimino)acetamido)-2-hydroxy-3,4-dihydro-2H-benzo[e][1,2]oxaborinine-8-carboxylic Acid], in the test on E. coli K12 PBP1a/b, the “E. coli K12 PBP1a/b Potency” value is reported as “A (A represents a potency of >1000 μg/mL)”. In addition, the figures for the minimal inhibitory concentration (MIC) (in test [1]; with S. aureus ATCC 29213) were less than 64 µg/mL and 64 to 128 µg/mL, respectively. In addition, the “E. coli PBP2 Potency” value on E. coli PBP2 was “B (B represents a potency between 64 and 1000 μg/mL inclusive)”. The “E. coli PBP3 Potency” value on E. coli PBP3 is “A (A represents a potency of >1000 μg/mL)”.

Take `NCc1ccc(/C(=N/O)C(=O)N[C@H]2Cc3cccc(C(=O)O)c3OB2O)cc1` [Example 12, (R,Z)-3-(2-(4-(aminomethyl)phenyl)-2-(hydroxyimino)acetamido)-2-hydroxy-3,4-dihydro-2H-benzo[e][1,2]oxaborinine-8-carboxylic Acid]: the “E. coli K12 PBP1a/b Potency” value in the test on E. coli K12 PBP1a/b was “B (B represents a potency between 64 and 1000 μg/mL inclusive)”. For the same molecule, the results for the minimal inhibitory concentration (MIC) (in test [1]; with S. aureus ATCC 29213) were more than 128 µg/mL and less than 64 µg/mL, respectively. Moreover, on E. coli PBP2, the “E. coli PBP2 Potency” value is “B (B represents a potency between 64 and 1000 μg/mL inclusive)”. Moreover, at E. coli PBP3, the “E. coli PBP3 Potency” value is “B (B represents a potency between 64 and 1000 μg/mL inclusive)”.

Turning to `Nc1nc(/C(=N/O)C(=O)N[C@H]2Cc3cccc(C(=O)O)c3OB2O)c(Cl)s1` [Example 17, (R,Z)-3-(2-(2-amino-5-chlorothiazol-4-yl)-2-(hydroxyimino)acetamido)-2-hydroxy-3,4-dihydro-2H-benzo[e][1,2]oxaborinine-8-carboxylic Acid], the “E. coli K12 PBP1a/b Potency” value with E. coli K12 PBP1a/b is “B (B represents a potency between 64 and 1000 μg/mL inclusive)”. The minimum inhibitory concentration (MIC) (commonly the least concentration at which growth counts as inhibited) in test [1] is 64 to 128 µg/mL; in the test on S. aureus ATCC 29213 it was less than 64 µg/mL. In addition, the “E. coli PBP2 Potency” value on E. coli PBP2 is “B (B represents a potency between 64 and 1000 μg/mL inclusive)”. The “E. coli PBP3 Potency” value on E. coli PBP3 is “B (B represents a potency between 64 and 1000 μg/mL inclusive)”.

As for `Nc1nc(/C(=N/O)C(=O)N[C@H]2Cc3cc(CO)cc(C(=O)O)c3OB2O)cs1` [Example 35, (R,Z)-3-(2-(2-aminothiazol-4-yl)-2-(hydroxyimino)acetamido)-2-hydroxy-6-(hydroxymethyl)-3,4-dihydro-2H-benzo[e][1,2]oxaborinine-8-carboxylic Acid], the “E. coli K12 PBP1a/b Potency” value with E. coli K12 PBP1a/b is given as “C (C represents a potency of <64 μg/mL)”. Besides, the figures for the minimum inhibitory concentration (MIC) (in test [1]; with S. aureus ATCC 29213) were more than 128 µg/mL and 64 to 128 µg/mL, respectively. For the same molecule, the “E. coli PBP2 Potency” value at E. coli PBP2 is recorded as “A (A represents a potency of >1000 μg/mL)”. Further, the “E. coli PBP3 Potency” value on E. coli PBP3 is “B (B represents a potency between 64 and 1000 μg/mL inclusive)”.

Turning to `Nc1nc(/C(=N/O)C(=O)N[C@H]2Cc3cc(CCC(=O)O)cc(C(=O)O)c3OB2O)cs1` [Example 37, (R,Z)-3-(2-(2-aminothiazol-4-yl)-2-(hydroxyimino)acetamido)-6-(2-carboxyethyl)-2-hydroxy-3,4-dihydro-2H-benzo[e][1,2]oxaborinine-8-carboxylic Acid], the “E. coli K12 PBP1a/b Potency” value with E. coli K12 PBP1a/b is “B (B represents a potency between 64 and 1000 μg/mL inclusive)”. Further, the values for the MIC (in test [1]; in the test with S. aureus ATCC 29213) were less than 64 µg/mL and 64 to 128 µg/mL, respectively. Moreover, the “E. coli PBP2 Potency” value at E. coli PBP2 is given as “C (C represents a potency of <64 μg/mL)”. The “E. coli PBP3 Potency” value on E. coli PBP3 is “B (B represents a potency between 64 and 1000 μg/mL inclusive)”.

In the case of `Nc1nc(/C(=N/O)C(=O)N[C@H]2Cc3cc(F)c(F)c(C(=O)O)c3OB2O)cs1` [Example 41, (R,Z)-3-(2-(2-aminothiazol-4-yl)-2-(hydroxyimino)acetamido)-6,7-difluoro-2-hydroxy-3,4-dihydro-2H-benzo[e][1,2]oxaborinine-8-carboxylic Acid], the “E. coli K12 PBP1a/b Potency” value in the test on E. coli K12 PBP1a/b is “B (B represents a potency between 64 and 1000 μg/mL inclusive)”. The MIC in test [1] was less than 64 µg/mL; in the test with S. aureus ATCC 29213 it was 64 to 128 µg/mL. Also, the “E. coli PBP2 Potency” value at E. coli PBP2 is “B (B represents a potency between 64 and 1000 μg/mL inclusive)”. The “E. coli PBP3 Potency” value at E. coli PBP3 was “B (B represents a potency between 64 and 1000 μg/mL inclusive)”.

As for `COc1cc2c(c(C(=O)O)c1)OB(O)[C@@H](NC(=O)/C(=N\O)c1csc(N)n1)C2` [Example 42, (R,Z)-3-(2-(2-aminothiazol-4-yl)-2-(hydroxyimino)acetamido)-2-hydroxy-6-methoxy-3,4-dihydro-2H-benzo[e][1,2]oxaborinine-8-carboxylic Acid], the “E. coli K12 PBP1a/b Potency” value in the test on E. coli K12 PBP1a/b was “C (C represents a potency of <64 μg/mL)”. Further, the minimum inhibitory concentration (MIC) (in test [1]; in the test on S. aureus ATCC 29213) was less than 64 µg/mL in each case. The “E. coli PBP2 Potency” value at E. coli PBP2 was “C (C represents a potency of <64 μg/mL)”. Moreover, on E. coli PBP3, the “E. coli PBP3 Potency” value is given as “C (C represents a potency of <64 μg/mL)”.

For the molecule `Nc1nc(/C(=N/O)C(=O)N[C@H]2Cc3cc(Cl)cc(C(=O)O)c3OB2O)cs1` [Example 44, (R,Z)-3-(2-(2-aminothiazol-4-yl)-2-(hydroxyimino)acetamido)-6-chloro-2-hydroxy-3,4-dihydro-2H-benzo[e][1,2]oxaborinine-8-carboxylic Acid], the “E. coli K12 PBP1a/b Potency” value in the test with E. coli K12 PBP1a/b is “B (B represents a potency between 64 and 1000 μg/mL inclusive)”. Besides, the minimum inhibitory concentration (MIC) (in test [1]; in the test with S. aureus ATCC 29213) was less than 64 µg/mL throughout. Also, the “E. coli PBP2 Potency” value on E. coli PBP2 is “B (B represents a potency between 64 and 1000 μg/mL inclusive)”. Besides, the “E. coli PBP3 Potency” value on E. coli PBP3 is “B (B represents a potency between 64 and 1000 μg/mL inclusive)”.

Consider `N#Cc1ccc(OCCO/N=C(\C(=O)N[C@H]2Cc3cccc(C(=O)O)c3OB2O)c2csc(N)n2)cc1` [Example 46, (R,Z)-3-(2-(2-aminothiazol-4-yl)-2-((2-(4-cyanophenoxy)ethoxy)imino)acetamido)-2-hydroxy-3,4-dihydro-2H-benzo[e][1,2]oxaborinine-8-carboxylic Acid], for which, in the test with E. coli K12 PBP1a/b, the “E. coli K12 PBP1a/b Potency” value was “C (C represents a potency of <64 μg/mL)”. For the same molecule, the minimum inhibitory concentration (MIC) in test [1] was less than 64 µg/mL; in the test with S. aureus ATCC 29213, 64 to 128 µg/mL. Also, the “E. coli PBP2 Potency” value on E. coli PBP2 was “C (C represents a potency of <64 μg/mL)”. Besides, the “E. coli PBP3 Potency” value at E. coli PBP3 is “B (B represents a potency between 64 and 1000 μg/mL inclusive)”.

For `Nc1nc(/C(=N/OCCOc2ccccc2)C(=O)N[C@H]2Cc3cccc(C(=O)O)c3OB2O)cs1` [Example 50, (R,Z)-3-(2-(2-aminothiazol-4-yl)-2-((2-phenoxyethoxy)imino)acetamido)-2-hydroxy-3,4-dihydro-2H-benzo[e][1,2]oxaborinine-8-carboxylic Acid], the “E. coli K12 PBP1a/b Potency” value in the test with E. coli K12 PBP1a/b was “B (B represents a potency between 64 and 1000 μg/mL inclusive)”. For the same molecule, the results for the minimum inhibitory concentration (MIC) (in test [1]; in the test with S. aureus ATCC 29213) were less than 64 µg/mL and 64 to 128 µg/mL, respectively. For the same molecule, the “E. coli PBP2 Potency” value on E. coli PBP2 was “B (B represents a potency between 64 and 1000 μg/mL inclusive)”. The “E. coli PBP3 Potency” value on E. coli PBP3 is “B (B represents a potency between 64 and 1000 μg/mL inclusive)”.
